The values below come from patent US20230126893A1, “[(1,4,5-TRISUBSTITUTED-1H-PYRAZOL-3-YL)SULFANYL]ACETIC ACID DERIVATIVES, SALTS THEREOF, AND USE THEREOF AS ACTIVE HERBICIDAL INGREDIENTS” (BAYER AKTIENGESELLSCHAFT, priority 2020, published 2023).

What all share (assay type): in vivo
One assay relates to Lolium rigidum. Put plainly: Pre-emergence herbicidal effect against LOLRI. To be noted: 1280 g/ha, visual score after 3 weeks, 100% = plants have died, 0% = like control plants. An outline of the steps: (§1)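 Percent herbicidal activity (100% = dead, 0% = as control) was rated by eye 3 weeks post-application in greenhouse pots of sandy loam, with treatment sprayed onto the covering soil before emergence.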

Assay [1] deals with Poa annua. Put plainly: Pre-emergence herbicidal effect against POAAN. Particulars: 1280 g/ha, visual score after 3 weeks, 100% = plants have died, 0% = like control plants. An outline of the steps:
as §1

The subject of assay [2] is Echinochloa crus-galli. Put plainly: Pre-emergence herbicidal effect against ECHCG. Particulars: 1280 g/ha, visual score after 3 weeks, 100% = plants have died, 0% = like control plants. The procedure, abridged:
as §1

In assay [3] the test system is Alopecurus myosuroides. Put plainly: Post-emergence herbicidal effect against ALOMY. To be noted: 1280 g/ha, visual score after about 3 weeks, 100% = plants have died, 0% = like control plants. The procedure, abridged:
(§2)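 Percent herbicidal effect, judged visually against untreated plants about 3 weeks after treatment, where 100% means dead plants. Treatment was a foliar spray of WP or EC formulations (600 to 800 l/ha water, 0.2% wetting agent) on one-leaf-stage plants raised in sandy loam.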

Assay [4] relates to Stellaria media. As to the kind of experiment: Post-emergence herbicidal effect against STEME. Particulars: 1280 g/ha, visual assessment about 3 weeks after treatment, 100% = plants have died, 0% = like control plants. The procedure, abridged: as §2
Assay [5] deals with Tripleurospermum inodorum. As to the kind of experiment: Post-emergence herbicidal effect against MATIN. To be noted: 1280 g/ha, visual assessment about 3 weeks after treatment, 100% = plants have died, 0% = like control plants. The procedure, abridged:
as §2

For assay [6], the system named is Poa annua. Put plainly: Post-emergence herbicidal effect against POAAN. To be noted: 1280 g/ha, visual assessment about 3 weeks after treatment, 100% = plants have died, 0% = like control plants. The procedure, abridged: as §2
For assay [7], the system named is Bassia scoparia. As to the kind of experiment: Pre-emergence herbicidal effect against KCHSC. To be noted: 1280 g/ha, visual score after 3 weeks, 100% = plants have died, 0% = like control plants. The text has this: (§3) 1. Pre-emergence herbicidal effect and crop plant compatibility Seeds of monocotyledonous and dicotyledonous weed plants and crop plants are laid out in sandy loam soil in wood-fibre pots and covered with soil. The compounds of the invention, formulated in the form of wettable powders (WP) or as emulsion concentrates (EC), are then applied to the surface of the covering soil as aqueous suspension or emulsion at a water application rate equating to 600 to 800 L/ha with addition of 0.2% wetting agent. After the treatment, the pots are placed in a greenhouse and kept under good growth conditions for the trial plants. The damage to the test plants is scored visually after a test period of 3 weeks by comparison with untreated controls (herbicidal activity in percent (%): 100% activity=the plants have died, 0% activity=like control plants). [table]

The subject of assay [8] is Amaranthus retroflexus. Put plainly: Post-emergence herbicidal effect against AMARE. To be noted: 1280 g/ha, visual assessment about 3 weeks after treatment, 100% = plants have died, 0% = like control plants. The protocol:
[table] 2. Post-emergence herbicidal effect and crop plant compatibility Seeds of monocotyledonous and dicotyledonous weed and crop plants are laid out in sandy loam soil in wood-fibre pots, covered with soil and cultivated in a greenhouse under good growth conditions. 2 to 3 weeks after sowing, the test plants are treated at the one-leaf stage. The compounds of the invention, formulated in the form of wettable powders (WP) or as emulsion concentrates (EC), are then sprayed onto the green parts of the plants as aqueous suspension or emulsion at a water application rate equating to 600 to 800 l/ha with addition of 0.2% wetting agent. After the test plants have been left to stand in the greenhouse under optimal growth conditions for about 3 weeks, the action of the preparations is assessed visually in comparison to untreated controls (herbicidal action in percent (%): 100% activity=the plants have died, 0% activity=like control plants).

The test system of assay [9] is Stellaria media. Put plainly: Pre-emergence herbicidal effect against STEME. Particulars: 1280 g/ha, visual score after 3 weeks, 100% = plants have died, 0% = like control plants. The procedure, abridged: as §1
In assay [10] the test system is Veronica persica. As to the kind of experiment: Pre-emergence herbicidal effect against VERPE. To be noted: 1280 g/ha, visual score after 3 weeks, 100% = plants have died, 0% = like control plants. The procedure, abridged:
as §1

In assay [11] the test system is Digitaria sanguinalis. Put plainly: Post-emergence herbicidal effect against DIGSA. Particulars: 1280 g/ha, visual score after about 3 weeks, 100% = plants have died, 0% = like control plants. The procedure, abridged: as §2
Assay [12] deals with Alopecurus myosuroides. Put plainly: Pre-emergence herbicidal effect against ALOMY. Particulars: 1280 g/ha, visual score after 3 weeks, 100% = plants have died, 0% = like control plants. The procedure, abridged:
as §1

Assay [13] deals with Bassia scoparia. As to the kind of experiment: Post-emergence herbicidal effect against KCHSC. Particulars: 1280 g/ha, visual assessment about 3 weeks after treatment, 100% = plants have died, 0% = like control plants. An outline of the steps:
as §2

Assay [14] concerns Abutylon threophrasti. Put plainly: Post-emergence herbicidal effect against ABUTH. Particulars: 1280 g/ha, visual assessment about 3 weeks after treatment, 100% = plants have died, 0% = like control plants. The procedure, abridged: as §2
The test system of assay [15] is Veronica persica. As to the kind of experiment: Post-emergence herbicidal effect against VERPE. Particulars: 1280 g/ha, visual assessment about 3 weeks after treatment, 100% = plants have died, 0% = like control plants. An outline of the steps:
as §2

The subject of assay [16] is Digitaria sanguinalis. As to the kind of experiment: Pre-emergence herbicidal effect against DIGSA. To be noted: 1280 g/ha, visual score after 3 weeks, 100% = plants have died, 0% = like control plants. The procedure, abridged:
as §1

Assay [17] relates to Setaria viridis. As to the kind of experiment: Pre-emergence herbicidal effect against SETVI. Particulars: 1280 g/ha, visual score after 3 weeks, 100% = plants have died, 0% = like control plants. The procedure, abridged:
as §1

The test system of assay [18] is Tripleurospermum inodorum. As to the kind of experiment: Pre-emergence herbicidal effect against MATIN. Particulars: 1280 g/ha, visual score after 3 weeks, 100% = plants have died, 0% = like control plants. The procedure, abridged: as §1
Assay [19] deals with Amaranthus retroflexus. As to the kind of experiment: Pre-emergence herbicidal effect against AMARE. Particulars: 1280 g/ha, visual score after 3 weeks, 100% = plants have died, 0% = like control plants. The procedure, abridged: as §1
Assay [20] has as its system Echinochloa crus-galli. As to the kind of experiment: Post-emergence herbicidal effect against ECHCG. Particulars: 1280 g/ha, visual score after about 3 weeks, 100% = plants have died, 0% = like control plants. An outline of the steps:
as §2

The subject of assay [21] is Setaria viridis. Put plainly: Post-emergence herbicidal effect against SETVI. Particulars: 1280 g/ha, visual assessment about 3 weeks after treatment, 100% = plants have died, 0% = like control plants. The procedure, abridged:
as §2

Assay [22] has as its system Abutylon threophrasti. As to the kind of experiment: Pre-emergence herbicidal effect against ABUTH. To be noted: 1280 g/ha, visual score after 3 weeks, 100% = plants have died, 0% = like control plants.
Text: as §3

Each structure is given as a SMILES string.

Consider `CCOC(=O)CSc1nn(-c2cc(F)ccc2F)c(-c2ccc(F)c(F)c2)c1Br` [Example I-013], for which the “Pre-emergence action against LOLRI” value with Lolium rigidum amounted to 100%. In the assay with Poa annua [1], the “Pre-emergence action against POAAN” value worked out at 100%. The “Pre-emergence action against ECHCG” value with Echinochloa crus-galli [2] came out at 100%. Besides, in the assay on Alopecurus myosuroides [3], the “Post-emergence action against ALOMY” value is on record as 100%. Also, in the assay on Stellaria media [4], the “Post-emergence action against STEME” value is recorded as 100%. The “Post-emergence action against MATIN” value in assay [5] worked out at 100%. In addition, in the assay on Poa annua [6], the “Post-emergence action against POAAN” value is 100%. In addition, the “Pre-emergence action against KCHSC” value in the assay on Bassia scoparia [7] amounted to 90%. Besides, the “Post-emergence action against AMARE” value in the assay on Amaranthus retroflexus [8] turned out to be 100%. Further, in the assay with Stellaria media [9], the “Pre-emergence action against STEME” value came out at 100%. Also, in the assay with Veronica persica [10], the “Pre-emergence action against VERPE” value is given as 100%. Moreover, in the assay on Digitaria sanguinalis [11], the “Post-emergence action against DIGSA” value turned out to be 100%. The “Pre-emergence action against ALOMY” value in the assay on Alopecurus myosuroides [12] turned out to be 100%. In addition, in the assay with Bassia scoparia [13], the “Post-emergence action against KCHSC” value worked out at 90%. Further, the “Post-emergence action against ABUTH” value with Abutylon threophrasti [14] turned out to be 90%. The “Post-emergence action against VERPE” value with Veronica persica [15] turned out to be 100%. The “Pre-emergence action against DIGSA” value in the assay with Digitaria sanguinalis [16] is 100%. Further, the “Pre-emergence action against SETVI” value in the assay on Setaria viridis [17] is 100%. For the same molecule, the “Pre-emergence action against MATIN” value in assay [18] amounted to 100%. In the assay with Amaranthus retroflexus [19], the “Pre-emergence action against AMARE” value was determined as 100%.
With `CCOC(=O)CSc1nn(-c2ccc(F)cc2F)c(-c2ccc(F)cc2)c1Br` [Example I-016], in the assay with Echinochloa crus-galli [20], the “Post-emergence action against ECHCG” value was 90%. Also, in the assay with Lolium rigidum, the “Pre-emergence action against LOLRI” value came out at 90%. Also, the “Pre-emergence action against POAAN” value in the assay with Poa annua [1] came to 100%. In addition, in the assay with Echinochloa crus-galli [2], the “Pre-emergence action against ECHCG” value is reported as 100%. Besides, the “Post-emergence action against ALOMY” value in the assay on Alopecurus myosuroides [3] came to 100%. In the assay on Stellaria media [4], the “Post-emergence action against STEME” value is reported as 90%. Also, in [5], the “Post-emergence action against MATIN” value worked out at 90%. The “Post-emergence action against POAAN” value with Poa annua [6] came out at 90%. For the same molecule, the “Pre-emergence action against KCHSC” value with Bassia scoparia [7] is given as 100%. In addition, the “Pre-emergence action against STEME” value in the assay on Stellaria media [9] turned out to be 100%. Also, the “Pre-emergence action against VERPE” value in the assay on Veronica persica [10] stood at 100%. Also, in the assay with Digitaria sanguinalis [11], the “Post-emergence action against DIGSA” value stood at 90%. Besides, the “Pre-emergence action against ALOMY” value in the assay with Alopecurus myosuroides [12] is 90%. The “Post-emergence action against KCHSC” value in the assay with Bassia scoparia [13] came to 90%. Further, in the assay with Veronica persica [15], the “Post-emergence action against VERPE” value was 90%. Besides, in the assay on Digitaria sanguinalis [16], the “Pre-emergence action against DIGSA” value is recorded as 100%. In addition, the “Pre-emergence action against SETVI” value with Setaria viridis [17] is recorded as 100%. In assay [18], the “Pre-emergence action against MATIN” value amounted to 100%.
On to `CCOC(=O)CSc1nn(-c2ccc(F)cc2)c(-c2ccc(F)cc2)c1Br` [Example I-019], for which the “Pre-emergence action against POAAN” value in the assay with Poa annua [1] came to 100%. Also, in the assay with Echinochloa crus-galli [2], the “Pre-emergence action against ECHCG” value was 100%. In addition, the “Post-emergence action against ALOMY” value in the assay with Alopecurus myosuroides [3] is 100%. In addition, the “Post-emergence action against STEME” value in the assay on Stellaria media [4] amounted to 90%. In addition, the “Post-emergence action against MATIN” value in [5] came out at 100%. Besides, in the assay with Poa annua [6], the “Post-emergence action against POAAN” value was 100%. For the same molecule, the “Pre-emergence action against KCHSC” value with Bassia scoparia [7] was 100%. Moreover, in the assay on Setaria viridis [21], the “Post-emergence action against SETVI” value worked out at 90%. Further, the “Pre-emergence action against STEME” value in the assay with Stellaria media [9] is reported as 90%. The “Pre-emergence action against VERPE” value in the assay with Veronica persica [10] came out at 100%. Moreover, the “Post-emergence action against DIGSA” value in the assay with Digitaria sanguinalis [11] came out at 100%. In the assay with Alopecurus myosuroides [12], the “Pre-emergence action against ALOMY” value is recorded as 90%. The “Post-emergence action against KCHSC” value in the assay with Bassia scoparia [13] was 100%. Further, the “Post-emergence action against ABUTH” value in the assay with Abutylon threophrasti [14] turned out to be 100%. The “Post-emergence action against VERPE” value with Veronica persica [15] turned out to be 100%. For the same molecule, the “Pre-emergence action against DIGSA” value in the assay on Digitaria sanguinalis [16] amounted to 100%. The “Pre-emergence action against SETVI” value in the assay with Setaria viridis [17] was 100%. The “Pre-emergence action against MATIN” value in [18] is listed as 100%. Further, in the assay on Abutylon threophrasti [22], the “Pre-emergence action against ABUTH” value is 90%.
